Blank lines part the entries; values can stand above or below the compound they belong to.
Assays:
[1] = target: T1, h-FPR2 (Homo sapiens, UniProt P25090); conditions: previously characterized; ref [33]; cited from earlier work
T1 sequence (P25090 1-351): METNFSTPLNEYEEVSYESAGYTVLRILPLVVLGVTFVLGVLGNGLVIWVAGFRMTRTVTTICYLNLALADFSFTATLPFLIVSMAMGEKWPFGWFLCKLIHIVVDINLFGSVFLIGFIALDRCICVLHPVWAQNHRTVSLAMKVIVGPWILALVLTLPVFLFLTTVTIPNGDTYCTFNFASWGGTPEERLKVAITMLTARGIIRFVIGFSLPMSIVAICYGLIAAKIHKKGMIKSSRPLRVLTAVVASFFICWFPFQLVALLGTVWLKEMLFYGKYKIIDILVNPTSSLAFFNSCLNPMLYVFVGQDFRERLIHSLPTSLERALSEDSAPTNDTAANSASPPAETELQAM

[2] = target: T1, h-FPR2; assay: Ca2+ mobilization in FPR2-HL60 transfected cells; type: cell-based; conditions: for EC50, μM FPR2-HL60 / Agonist character (full/partial) at FPR2: Ca2+ mobilization; for EC50, μM FPR2-HL60: FPR2-HL60 cells
[3] = Stability assays in rat liver microsomes; type: in vitro ADME; conditions: pH 7.4, Metabolic stability (% remaining), percent of parent compound remaining after 30-min incubation
[4] = test system: hCMEC/D3 cells; assay: Bidirectional transport across hCMEC/D3 cell monolayer; type: in vitro ADME, human; conditions: 100 μM, 2 h; for PappAB: apical-to-basolateral transport; for PappBA: basolateral-to-apical transport
[5] = test system: TNF-α production in rat microglial cell cultures; assay: TNF-α ELISA in rat microglial cell cultures; type: cell-based; conditions: for Effect on LPS-evoked TNF-α production / Block by WRW4 of effect on TNF-α: LPS-stimulated; for Effect on LPS-evoked TNF-α production: 0.5 to 10 μM; for Effect on TNF-α production: basal conditions, agonists 0.5 μM-10 μM; for Block by WRW4 of effect on TNF-α: pre-treatment with FPR2 antagonist WRW4
[6] = test system: rat primary microglial cells; assay: MTT cell viability test in rat primary microglial cell cultures; type: cell-based; conditions: for Effect on metabolic activity (MTT) / Effect on conversion of MTT dye: basal conditions; for Effect on metabolic activity (MTT): 0.5–10 μM, 24 h; for Effect on conversion of MTT dye: 50 μM
[7] = test system: IL-1β production in rat microglial cell cultures; assay: IL-1β ELISA in rat microglial cell cultures; type: cell-based; conditions: for Effect on LPS-evoked IL-1β production / Block by WRW4 of effect on IL-1β: LPS-stimulated; for Effect on LPS-evoked IL-1β production: 0.5 to 10 μM; for Block by WRW4 of effect on IL-1β: pre-treatment with FPR2 antagonist WRW4; for Effect on IL-1β production: basal conditions, agonists 0.5 μM-10 μM
[8] = test system: rat primary microglial cells; assay: Lactate dehydrogenase; type: cell-based; conditions: for Effect on LPS-induced cell death (LDH release): LPS-stimulated, pre-treatment 1 μM and 5 μM; for Effect on LDH release (cell death) / Effect on LDH release: basal conditions; for Effect on LDH release (cell death): 50 μM; for Effect on LDH release: 0.5–10 μM, 24 h
[9] = test system: NO production in rat microglial cell cultures; assay: NO release assay; type: cell-based; conditions: for Effect on LPS-increased NO level: LPS-stimulated, (S)-10 at 5 μM and 10 μM; for Effect on NO level: basal conditions
[10] = test system: human neutrophils; assay: Ca2+ mobilization in human neutrophils; type: cell-based
[11] = target: T2, h-FPR1 (Homo sapiens, UniProt P21462); assay: Ca2+ mobilization in FPR1-HL60 transfected cells; type: cell-based
T2 sequence (P21462 1-350): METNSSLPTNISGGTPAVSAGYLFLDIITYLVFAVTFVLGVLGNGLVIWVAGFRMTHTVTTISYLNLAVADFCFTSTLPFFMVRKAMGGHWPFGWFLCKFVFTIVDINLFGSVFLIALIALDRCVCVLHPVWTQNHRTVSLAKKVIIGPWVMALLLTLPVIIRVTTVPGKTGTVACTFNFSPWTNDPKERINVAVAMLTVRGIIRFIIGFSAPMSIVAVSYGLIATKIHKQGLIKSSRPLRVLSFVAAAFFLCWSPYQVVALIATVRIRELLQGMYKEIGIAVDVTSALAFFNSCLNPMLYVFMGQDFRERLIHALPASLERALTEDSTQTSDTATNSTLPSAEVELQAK

[12] = Bidirectional transport across hCMEC/D3 cell monolayer; type: in vitro ADME, human; conditions: human

SMILES: O=C(Nc1ccc([N+](=O)[O-])cc1)N[C@H](Cc1c[nH]c2ccccc12)C(=O)NCC1(c2ccccc2)CC1 [(R)-6]
Interaction with FPR2 (intrinsic activity) [1]: weak FPR2 antagonist

SMILES: O=C(Nc1ccccc1)N[C@H](Cc1c[nH]c2ccccc12)C(=O)NCC1(c2ccccc2)CC1 [(R)-9, (R)-3-(1H-Indol-3-yl)-N-[(1-phenylcyclopropyl)methyl]-2-[3-(phenyl)ureido]propanamide]
EC50, μM FPR2-HL60 [2]: not able to induce Ca^2+ mobilization

SMILES: O=C(Nc1ccc([N+](=O)[O-])cc1)N[C@H](Cc1cccnc1)C(=O)NCC1(c2ccccc2)CC1 [(R)-11, (R)-2-[3-(4-Nitrophenyl)ureido]-N-[(1-phenylcyclopropyl)methyl]-3-(3-pyridinyl)-propanamide]
PappAB [4]: 11924.5 ×10⁻⁶ cm/s
PappBA [4]: 43754.4 ×10⁻⁶ cm/s
Effect on LPS-evoked TNF-α production [5]: effectively decrease LPS-evoked cytokine production
Effect on TNF-α production [5]: did not induce any change
Effect on metabolic activity (MTT) in LPS-stimulated cells [6]: no effect was observed on metabolic activity
Effect on metabolic activity (MTT) [6]: None of the compounds induced significant effects
Effect on LPS-evoked IL-1β production [7]: effectively decrease LPS-evoked cytokine production
Block by WRW4 of effect on IL-1β [7]: able to block the effect
Effect on IL-1β production [7]: did not induce any change
Agonist character (full/partial) at FPR2 [2]: partial agonists
Effect on LPS-induced cell death (LDH release) [8]: effectively blocked LPS-induced cell death processes
Effect on LDH release (cell death) [8]: significant increase in death processes
Effect on LDH release [8]: None of the compounds induced significant effects
Effect on LPS-increased NO level [9]: no effect was observed
Effect on NO level [9]: did not induce any change in NO level
EC50, μM Neutrophils [10]: submicromolar range

SMILES: O=C(Nc1ccccc1)N[C@@H](Cc1c[nH]c2ccccc12)C(=O)NCC1(c2ccccc2)CC1 [(S)-9, (S)-3-(1H-Indol-3-yl)-N-[(1-phenylcyclopropyl)methyl]-2-[3-(phenyl)ureido]propanamide]
Agonist character (full/partial) at FPR2 [2]: partial agonists

SMILES: N#Cc1ccc(C[C@H](NC(=O)Nc2ccc([N+](=O)[O-])cc2)C(=O)NCC2(c3ccccc3)CC2)cc1 [(S)-10, (S)-3-(4-Cyanophenyl)-2-[3-(4-nitrophenyl)ureido]-N-[(1-phenylcyclopropyl)methyl]propanamide]
PappBA [4]: 25303.3 ×10⁻⁶ cm/s
Effect on LPS-evoked TNF-α production [5]: effectively decrease LPS-evoked cytokine production
Block by WRW4 of effect on TNF-α [5]: did not abolish the observed effect
Effect on TNF-α production [5]: did not induce any change
Effect on metabolic activity (MTT) in LPS-stimulated cells [6]: no effect was observed on metabolic activity
Effect on conversion of MTT dye [6]: decreased the conversion of MTT dye
Effect on metabolic activity (MTT) [6]: None of the compounds induced significant effects
Effect on LPS-evoked IL-1β production [7]: effectively decrease LPS-evoked cytokine production
Block by WRW4 of effect on IL-1β [7]: did not abolish the observed effect
Effect on IL-1β production [7]: did not induce any change
Agonist character (full/partial) at FPR2 [2]: full agonists
Increase in agonist potency compared to (S)-6 ([2]; FPR2, (S)-10 compared to (S)-6): 10 fold
Effect on LPS-induced cell death (LDH release) [8]: effectively blocked LPS-induced cell death processes
Effect on LDH release (cell death) [8]: significant increase in death processes
Effect on LDH release [8]: None of the compounds induced significant effects
Effect on LPS-increased NO level [9]: significantly attenuated
Effect on NO level [9]: did not induce any change in NO level

SMILES: N#Cc1ccc(C[C@H](NC(=O)Nc2ccc(F)cc2)C(=O)NCC2(c3ccc(F)c(Cl)c3)CC2)cc1 [(S)-17, (S)-3-(4-Cyanophenyl)-N-[[1-(3-chloro-4-fluorophenyl)cyclopropyl]methyl]-2-[3-(4-fluorophenyl)ureido]propanamide]
PappAB [4]: 14552.1 ×10⁻⁶ cm/s
PappBA [4]: 37598.1 ×10⁻⁶ cm/s
efflux ratio at 2 h, 100 μM [12]: < 3
Effect on LPS-evoked TNF-α production [5]: effectively decrease LPS-evoked cytokine production
Block by WRW4 of effect on TNF-α [5]: able to block the effect
Effect on TNF-α production [5]: did not induce any change
Effect on metabolic activity (MTT) in LPS-stimulated cells [6]: no effect was observed on metabolic activity
Effect on conversion of MTT dye [6]: decreased the conversion of MTT dye
Effect on metabolic activity (MTT) [6]: None of the compounds induced significant effects
Effect on LPS-evoked IL-1β production [7]: effectively decrease LPS-evoked cytokine production
Block by WRW4 of effect on IL-1β [7]: able to block the effect
Effect on IL-1β production [7]: did not induce any change
remaining at 0.5 h, 10 μM [3]: > 20%
Effect on LPS-induced cell death (LDH release) [8]: effectively blocked LPS-induced cell death processes
Effect on LDH release (cell death) [8]: significant increase in death processes
Effect on LDH release [8]: None of the compounds induced significant effects
Effect on LPS-increased NO level [9]: no effect was observed
Effect on NO level [9]: did not induce any change in NO level
EC50, μM Neutrophils [10]: submicromolar range

The next lines start with the values.

EC50, μM FPR2-HL60 [2]: not able to induce Ca^2+ mobilization
remaining at 0.5 h, 10 μM [3]: 4%
SMILES: O=C(Nc1ccc(F)cc1)N[C@H](Cc1c[nH]c2ccccc12)C(=O)NCC1(c2ccccc2)CC1 [(R)-8, (R)-2-[3-(4-Fluorophenyl)ureido]-3-(1H-indol-3-yl)-N-[(1-phenylcyclopropyl)methyl]propanamide]

Agonist character (full/partial) at FPR2 [2]: full agonists
SMILES: N#Cc1ccc(C[C@@H](NC(=O)Nc2ccc([N+](=O)[O-])cc2)C(=O)NCC2(c3ccccc3)CC2)cc1 [(R)-10, (R)-3-(4-Cyanophenyl)-2-[3-(4-nitrophenyl)ureido]-N-[(1-phenylcyclopropyl)methyl]propanamide]

remaining at 0.5 h, 10 μM [3]: > 20%
SMILES: Cc1ccc(C2(CNC(=O)[C@@H](Cc3ccc(C#N)cc3)NC(=O)Nc3ccc(F)cc3)CC2)cc1F [(R)-15, (R)-3-(4-Cyanophenyl)-N-[[1-(3-fluoro-4-methylphenyl)cyclopropyl]methyl]-2-[3-(4-fluorophenyl)ureido]propanamide]

Agonist character (full/partial) at FPR1 [11]: potent FPR1 full agonists
SMILES: COc1ccc(NC(=O)N[C@H](Cc2ccc(C#N)cc2)C(=O)NCC2(c3ccc(F)c(Cl)c3)CC2)cc1 [(R)-16, (R)-N-[[1-(3-Chloro-4-fluorophenyl)cyclopropyl]methyl]-3-(4-cyanophenyl)-2-[3-(4-methoxyphenyl)ureido]propanamide]

remaining at 0.5 h, 10 μM [3]: > 20%
SMILES: N#Cc1ccc(C[C@@H](NC(=O)Nc2ccc(F)cc2)C(=O)NCC2(c3ccc(F)c(Cl)c3)CC2)cc1 [(R)-17, (R)-3-(4-Cyanophenyl)-N-[[1-(3-chloro-4-fluorophenyl)cyclopropyl]methyl]-2-[3-(4-fluorophenyl)ureido]propanamide]

Agonist character (full/partial) at FPR1 [11]: full agonist
Agonist character (full/partial) at FPR2 [2]: full agonist
SMILES: COc1ccc(NC(=O)N[C@@H](Cc2c[nH]c3ccccc23)C(=O)NCC2(c3ccccc3)CC2)cc1 [(S)-7, (S)-3-(1H-Indol-3-yl)-2-[3-(4-methoxyphenyl)ureido]-N-[(1-phenylcyclopropyl)methyl] propanamide]

Agonist character (full/partial) at FPR2 [2]: partial agonists
SMILES: O=C(Nc1ccc(F)cc1)N[C@@H](Cc1c[nH]c2ccccc12)C(=O)NCC1(c2ccccc2)CC1 [(S)-8, (S)-2-[3-(4-Fluorophenyl)ureido]-3-(1H-indol-3-yl)-N-[(1-phenylcyclopropyl)methyl]propanamide]

EC50, μM FPR1-HL60 ([11]; FPR1-HL60 cells): low micromolar range
Agonist character (full/partial) at FPR2 [2]: partial agonists
SMILES: O=C(Nc1ccc([N+](=O)[O-])cc1)N[C@@H](Cc1cccnc1)C(=O)NCC1(c2ccccc2)CC1 [(S)-11, (S)-2-[3-(4-Nitrophenyl)ureido]-N-[(1-phenylcyclopropyl)methyl]-3-(3-pyridinyl)-propanamide]

Agonist character (full/partial) at FPR1 [11]: potent FPR1 full agonists
SMILES: COc1ccc(NC(=O)N[C@@H](Cc2ccc(C#N)cc2)C(=O)NCC2(c3ccc(F)c(Cl)c3)CC2)cc1 [(S)-16, (S)-N-[[1-(3-Chloro-4-fluorophenyl)cyclopropyl]methyl]-3-(4-cyanophenyl)-2-[3-(4-methoxyphenyl)ureido]propanamide]

Source: PMC5693244 (European journal of medicinal chemistry, 2017)
